# Test results reported in PMC6444227, “Pharmacological Evaluation of Secondary Metabolites and Their Simultaneous Determination in the Arabian Medicinal Plant Plicosepalus curviflorus Using HPTLC Validated Method” (Journal of Analytical Methods in Chemistry, 2019).
# Columns and labels:
# [1] = tested on: Bacillus cereus (ATCC 14579); assay: Antibacterial broth microdilution (MIC); type: cell-based; conditions: ATCC14579, read-out: MIC, B. cereus
# [2] = tested on: Pseudomonas aeruginosa (ATCC 27853); assay: Antibacterial broth microdilution (MIC); type: cell-based; conditions: ATCC27853, read-out: MIC, P. aeruginosa
# Description: (§1) (CP017183.1), Escherichia fergusonii (CU928158.2), and Pseudomonas aeruginosa (NR-117678.1) and Gram-positive Staphylococcus aureus (CP011526.1) and Bacillus licheniformis (KX785171.1) using well diffusion and broth microdilution techniques as described by Berghe and […] [16]. The bacterial strains were suspended in a nutrient broth for 24 hr, and the suspension then spread on Mueller-Hinton agar. […] Amikacin was used as the positive control.
# [3] = tested on: Escherichia fergusonii (CU928158.2); assay: Antibacterial broth microdilution (MIC); type: cell-based; conditions: read-out: MIC, E. fergusonii
# Description: as §1
# [4] = tested on: Klebsiella pneumonia (ATCC 700603); assay: Antibacterial broth microdilution (MIC); type: cell-based; conditions: Klebsiella pneumoniae, ATCC700603, read-out: MIC, K. pneumonia
# Description: as §1
# Staphylococcus aureus [5] = assay: Antibacterial broth microdilution (MIC); type: cell-based; conditions: read-out: MIC, S. aureus
# Description: as §1
# [6] = tested on: Bacillus cereus (ATCC 14579); assay: Antibacterial well diffusion; type: cell-based; conditions: 10 µL per well, mean ± SD
# [7] = tested on: Pseudomonas aeruginosa (ATCC 27853); assay: Antibacterial well diffusion; type: cell-based; conditions: 10 µL per well, mean ± SD
# Description: as §1
# [8] = tested on: Escherichia fergusonii (CU928158.2); assay: Antibacterial well diffusion; type: cell-based; conditions: 10 µL per well, mean ± SD
# Description: as §1
# [9] = tested on: Klebsiella pneumonia (ATCC 700603); assay: Antibacterial well diffusion; type: cell-based; conditions: 10 µL per well, mean ± SD
# Description: as §1
# Staphylococcus aureus [10] = assay: Antibacterial well diffusion; type: cell-based; conditions: 10 µL per well, mean ± SD
# Description: as §1
# PPARα = target: T1, PPARα (Homo sapiens, UniProt Q07869); assay: PPARα reporter gene assay (luciferase fold induction); type: cell-based; conditions: for PPAR alpha agonistic activity, fold induction: dual activation
# T1 construct: expressed in transfected cells
# T1 sequence (Q07869 1-468): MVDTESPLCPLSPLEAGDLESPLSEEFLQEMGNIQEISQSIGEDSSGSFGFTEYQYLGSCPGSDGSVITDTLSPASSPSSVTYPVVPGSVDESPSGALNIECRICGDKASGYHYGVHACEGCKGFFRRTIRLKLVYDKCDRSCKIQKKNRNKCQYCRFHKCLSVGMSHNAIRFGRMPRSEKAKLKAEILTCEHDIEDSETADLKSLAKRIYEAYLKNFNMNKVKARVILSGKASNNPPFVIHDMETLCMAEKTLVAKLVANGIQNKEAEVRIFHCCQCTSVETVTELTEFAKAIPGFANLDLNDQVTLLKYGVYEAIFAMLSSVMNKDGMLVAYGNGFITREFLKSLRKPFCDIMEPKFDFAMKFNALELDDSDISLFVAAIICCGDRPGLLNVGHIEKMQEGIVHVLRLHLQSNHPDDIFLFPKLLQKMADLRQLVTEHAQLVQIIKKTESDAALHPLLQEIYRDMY
# Protocol: (§2) A reporter gene assay was carried out as described previously. Briefly, upon confluency, the different concentrations of the test samples were exposed to transfected cells for 24 hrs. Vehicle control was taken into consideration when the fold induction in luciferase activity was calculated. Both rosiglitazone and ciprofibrate were used as control drugs for PPARα and PPARγ, respectively.
# (§3) Fold induction in the PPAR activity was detected in response to the methanol fraction and pure compounds according to untreated controls. A fold induction of 1.5 means a 50% increase in PPAR activity. […] Several studies have been carried out with the aim of exploring the potential of selective PPARγ modulators. The dual activator effect of P2 is in agreement with previous literature.
# iNOS = iNOS inhibition, nitrite level in LPS-treated macrophages (Griess); type: cell-based, mouse; conditions: for IC50: Mus musculus
# Protocol: Mouse macrophage (RAW264.7) cells were seeded in the wells of 96-well plates followed by 24 hrs for confluency according to the method described previously. The test samples were treated with LPS (5 μg/mL) and followed by 24-hour incubation as well. The nitrite level in cell supernatant was measured by Griess reagent. The dose response curves gave indication for IC50 values. Parthenolide was used as positive control.
# [11] = tested on: four cancerous cell lines as well as the two normal cell lines; assay: Cytotoxicity, whole panel; type: cell-based; conditions: all cell lines
# Protocol: (§4) Four human cancer cell lines (SK-OV-3, SK-MEL, BT-549 and KB) and two noncancerous kidney cell lines (VERO and LLC-PK1) were measured in the in vitro cytotoxic study. Test samples were added on the cell lines with variable concentrations, followed by 48 h incubation. According to the Borenfreund method, the cell viability was determined at the end of incubation, using doxorubicin as a positive control.
# PPARγ = target: T2, PPARγ (Homo sapiens, UniProt P37231); assay: PPARγ reporter gene assay (luciferase fold induction); type: cell-based; conditions: for PPAR gamma agonistic activity, fold induction: dual activation
# T2 construct: expressed in transfected cells
# T2 sequence (P37231 1-505): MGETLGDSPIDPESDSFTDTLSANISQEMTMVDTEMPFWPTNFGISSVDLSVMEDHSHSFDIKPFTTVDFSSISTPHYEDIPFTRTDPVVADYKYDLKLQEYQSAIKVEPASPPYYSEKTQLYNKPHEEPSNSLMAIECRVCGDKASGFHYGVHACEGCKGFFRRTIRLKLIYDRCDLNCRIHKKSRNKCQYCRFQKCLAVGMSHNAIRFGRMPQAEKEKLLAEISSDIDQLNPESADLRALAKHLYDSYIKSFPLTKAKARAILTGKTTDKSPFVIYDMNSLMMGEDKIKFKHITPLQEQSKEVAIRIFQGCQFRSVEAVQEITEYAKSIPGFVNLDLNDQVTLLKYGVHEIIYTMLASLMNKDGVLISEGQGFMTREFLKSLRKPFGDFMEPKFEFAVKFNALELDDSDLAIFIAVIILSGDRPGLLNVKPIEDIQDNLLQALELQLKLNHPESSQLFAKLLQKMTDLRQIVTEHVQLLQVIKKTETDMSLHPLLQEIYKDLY
# Protocol: as §2, §3
# HepG2 cells = assay: Cellular antioxidant assay (decrease in oxidative stress, ABAP); type: cell-based, human
# Protocol: Human hepatoma cell line (HepG2) was the cell line of choice in this study according to the previously described method. At a density of 60,000 cells/well, the HepG2 cells were seeded in a 96-well plate and incubated for 24 h for confluency. PBS was used for washing the cells, followed by samples treatment. The SpectraMax plate reader was used for reading the plates after addition of 600 μM of ABAP. The area under the curve (AUC) of fluorescence units and time were two parameters used for indication of the percent decrease in oxidative stress. Percent decrease in oxidative stress = 100 − ((AUC sample/AUC control) × 100). Quercetin was used as a positive control.
# LLC-PK11 = assay: Cytotoxicity assay (Borenfreund method, 48 h); type: cell-based; conditions: NA = no cytotoxic activity upto 100 µg/mL, read-out: Noncancer cells IC50, LLC-PK11
# Protocol: as §4
# [12] = RAW264.7, LPS 5 µg/mL, 24 h, NA = no activity up to 100 µg/mL
# [13] = at 250 µg/mL for pure compounds
MIC [1] [µg/mL],MIC [2] [µg/mL],MIC [3] [µg/mL],MIC [4] [µg/mL],MIC (Staphylococcus aureus [5]) [µg/mL],"PPAR gamma agonistic activity, fold induction (PPARγ)","PPAR alpha agonistic activity, fold induction (PPARα)",Compound,"ZOI diameter, B. cereus [6] [mm]","ZOI diameter, P. aeruginosa [7] [mm]","ZOI diameter, E. fergusonii [8] [mm]","ZOI diameter, K. pneumonia [9] [mm]","ZOI diameter, S. aureus (Staphylococcus aureus [10]) [mm]",Cytotoxicity (in words) [11],% decrease in oxidative stress (HepG2 cells; [13]) [%],IC50 (LLC-PK11) [µg/mL],also measured
7.3,8,4.5,5,6.2,,,"NCC[C@H](O)C(=O)N[C@@H]1C[C@H](N)[C@@H](O[C@H]2O[C@H](CN)[C@@H](O)[C@H](O)[C@H]2O)[C@H](O)[C@H]1O[C@H]1O[C@H](CO)[C@@H](O)[C@H](N)[C@H]1O [AMK, Amikacin, reference compound]",20 ± 0.9,18 ± 1.3,24 ± 1.5,25 ± 0.8,24 ± 1,,,,
,,,,,,,"CC(C)(Oc1ccc(C2CC2(Cl)Cl)cc1)C(=O)O (centres unmarked) [Ciprofibrate, reference compound]",,,,,,,,,"fold induction at 10 µM (PPARα; control drug at 10 µM, read-out: Fold induction PPAR alpha): 2.2"
8.4,6.6,9.3,6.2,8.3,no PPAR agonistic activity,no PPAR agonistic activity,"O=c1c(O)c(-c2ccc(O)c(O)c2)oc2cc(O)cc(O)c12 [Compound P1, quercetin]",19.3 ± 1.15,21 ± 1,16.3 ± 0.57,21.3 ± 1.15,18 ± 1,not cytotoxic,52,55,"IC50 (iNOS; RAW264.7, 24 h, RAW264.7, LPS 5 µg/mL, 24 h, NA = no activity up to 100 µg/mL): 25 µg/mL; iNOS inhibition (IC50) (iNOS; [12]): 48 µg/mL; % decrease in oxidative stress (HepG2 cells; positive control at 50 µM): 75%"
,,11,,,≥ 1.5 fold,≥ 1.5 fold,"Oc1cc(O)c2c(c1)O[C@@H](c1ccc(O)c(O)c1)[C@H](O)C2 [Compound P2, (-)-catechin]",,,8 ± 1,,,not cytotoxic,39,16,"iNOS inhibition (in words) (iNOS): showed iNOS inhibition; IC50 (iNOS; [12]): > 50 µg/mL; fold induction at 12.5 µg/mL (PPARγ; 12.5 µg/mL, 24 hrs, NA = not active, read-out: Fold induction PPAR gamma): 1.19; fold induction at 25 µg/mL (PPARγ; 25 µg/mL, 24 hrs, NA = not active, read-out: Fold induction PPAR gamma): 1.55; fold induction at 50 µg/mL (PPARγ; 50 µg/mL, 24 hrs, NA = not active, read-out: Fold induction PPAR gamma): 1.53; fold induction at 12.5 µg/mL (PPARα; 12.5 µg/mL, 24 hrs, NA = not active, read-out: Fold induction PPAR alpha): 1.19; fold induction at 25 µg/mL (PPARα; 25 µg/mL, 24 hrs, NA = not active, read-out: Fold induction PPAR alpha): 1.31; fold induction at 50 µg/mL (PPARα; 50 µg/mL, 24 hrs, NA = not active, read-out: Fold induction PPAR alpha): 1.47"
